{"source": "the supplement of paper PMC10307832", "assay_in_all_cases": "relative viability (nuclei count vs DMSO), 5 days (fraction); higher = more cells survive", "key": {"201T": {"tested_on": "201T", "method_in_brief": "(§1)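 Lung cancer cell lines in 1536-well plates got either a single drug or a fixed anchor-drug dose together with five library-drug doses (not always all listed) in √10 steps, by pin tool, on the day after seeding. Nuclei were counted after 5 days, and relative viability is the treated-to-vehicle ratio of nuclei counts. Values are medians of duplicate plates.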"}, "EPLC-272H": {"tested_on": "EPLC-272H", "method_in_brief": "as §1"}, "H3255": {"tested_on": "H3255", "method_in_brief": "as §1"}, "HCC-44": {"tested_on": "HCC-44", "method_in_brief": "as §1"}, "LOU-NH91": {"tested_on": "LOU-NH91", "method_in_brief": "as §1"}, "NCI-H1734": {"tested_on": "NCI-H1734", "method_in_brief": "as §1"}, "NCI-H1793": {"tested_on": "NCI-H1793", "method_in_brief": "as §1"}, "NCI-H1993": {"tested_on": "NCI-H1993", "method_in_brief": "as §1"}, "NCI-H2085": {"tested_on": "NCI-H2085", "method_in_brief": "as §1"}, "NCI-H2170": {"tested_on": "NCI-H2170", "method_in_brief": "as §1"}, "NCI-H2347": {"tested_on": "NCI-H2347", "method_in_brief": "as §1"}, "NCI-H2405": {"tested_on": "NCI-H2405", "method_in_brief": "as §1"}, "NCI-H3122": {"tested_on": "NCI-H3122", "method_in_brief": "as §1"}, "NCI-H441": {"tested_on": "NCI-H441", "method_in_brief": "as §1"}, "NCI-H647": {"tested_on": "NCI-H647", "method_in_brief": "as §1"}, "PC-14": {"tested_on": "PC-14", "method_in_brief": "as §1"}, "RERF-LC-KJ": {"tested_on": "RERF-LC-KJ", "method_in_brief": "as §1"}, "SW 900": {"tested_on": "SW 900", "method_in_brief": "as §1"}}}
{"molecule": "CC1(C)CCC(c2ccc(Cl)cc2)=C(CN2CCN(c3ccc(C(=O)NS(=O)(=O)c4ccc(N[C@H](CCN5CCOCC5)CSc5ccccc5)c(S(=O)(=O)C(F)(F)F)c4)cc3)CC2)C1", "note": "[Navitoclax] + NC(=O)Nc1cc(-c2cccc(F)c2)sc1C(=O)N[C@H]1CCCNC1 [AZD7762] (partner 0.2 µM)", "values": [{"measurement": "relative viability", "setting": "201T; first compound 0.005 µM", "result": 0.656}, {"measurement": "relative viability", "setting": "201T; first compound 0.01581 µM", "result": 0.656}, {"measurement": "relative viability", "setting": "201T; first compound 0.05 µM", "result": 0.41}, {"measurement": "relative viability", "setting": "201T; first compound 0.1581 µM", "result": 0.565}, {"measurement": "relative viability", "setting": "201T; first compound 0.5 µM", "result": 0.504}, {"measurement": "relative viability", "setting": "EPLC-272H; first compound 0.005 µM", "result": 0.26}, {"measurement": "relative viability", "setting": "EPLC-272H; first compound 0.05 µM", "result": 0.3}, {"measurement": "relative viability", "setting": "EPLC-272H; first compound 0.1581 µM", "result": 0.143}, {"measurement": "relative viability", "setting": "EPLC-272H; first compound 0.5 µM", "result": 0.257}, {"measurement": "relative viability", "setting": "H3255; first compound 0.005 µM", "result": 0.891}, {"measurement": "relative viability", "setting": "H3255; first compound 0.01581 µM", "result": 1.03}, {"measurement": "relative viability", "setting": "H3255; first compound 0.05 µM", "result": 0.851}, {"measurement": "relative viability", "setting": "H3255; first compound 0.1581 µM", "result": 0.922}, {"measurement": "relative viability", "setting": "H3255; first compound 0.5 µM", "result": 0.805}, {"measurement": "relative viability", "setting": "HCC-44; first compound 0.005 µM", "result": 0.935}, {"measurement": "relative viability", "setting": "HCC-44; first compound 0.01581 µM", "result": 0.957}, {"measurement": "relative viability", "setting": "HCC-44; first compound 0.05 µM", "result": 0.961}, {"measurement": "relative viability", "setting": "HCC-44; first compound 0.1581 µM", "result": 0.915}, {"measurement": "relative viability", "setting": "HCC-44; first compound 0.5 µM", "result": 0.881}, {"measurement": "relative viability", "setting": "LOU-NH91; first compound 0.005 µM", "result": 0.746}, {"measurement": "relative viability", "setting": "LOU-NH91; first compound 0.01581 µM", "result": 0.792}, {"measurement": "relative viability", "setting": "LOU-NH91; first compound 0.05 µM", "result": 0.656}, {"measurement": "relative viability", "setting": "LOU-NH91; first compound 0.1581 µM", "result": 0.535}, {"measurement": "relative viability", "setting": "LOU-NH91; first compound 0.5 µM", "result": 0.306}, {"measurement": "relative viability", "setting": "NCI-H1734; first compound 0.005 µM", "result": 0.533}, {"measurement": "relative viability", "setting": "NCI-H1734; first compound 0.01581 µM", "result": 0.555}, {"measurement": "relative viability", "setting": "NCI-H1734; first compound 0.1581 µM", "result": 0.543}, {"measurement": "relative viability", "setting": "NCI-H1734; first compound 0.5 µM", "result": 0.506}, {"measurement": "relative viability", "setting": "NCI-H1793; first compound 0.005 µM", "result": 0.488}, {"measurement": "relative viability", "setting": "NCI-H1793; first compound 0.01581 µM", "result": 0.613}, {"measurement": "relative viability", "setting": "NCI-H1793; first compound 0.1581 µM", "result": 0.402}, {"measurement": "relative viability", "setting": "NCI-H1793; first compound 0.5 µM", "result": 0.246}, {"measurement": "relative viability", "setting": "NCI-H1993; first compound 0.005 µM", "result": 0.738}, {"measurement": "relative viability", "setting": "NCI-H1993; first compound 0.01581 µM", "result": 1.05}, {"measurement": "relative viability", "setting": "NCI-H1993; first compound 0.05 µM", "result": 0.552}, {"measurement": "relative viability", "setting": "NCI-H1993; first compound 0.1581 µM", "result": 0.721}, {"measurement": "relative viability", "setting": "NCI-H1993; first compound 0.5 µM", "result": 0.641}, {"measurement": "relative viability", "setting": "NCI-H2085; first compound 0.005 µM", "result": 0.941}, {"measurement": "relative viability", "setting": "NCI-H2085; first compound 0.01581 µM", "result": 1.01}, {"measurement": "relative viability", "setting": "NCI-H2085; first compound 0.05 µM", "result": 0.885}, {"measurement": "relative viability", "setting": "NCI-H2085; first compound 0.1581 µM", "result": 1.07}, {"measurement": "relative viability", "setting": "NCI-H2085; first compound 0.5 µM", "result": 0.942}, {"measurement": "relative viability", "setting": "NCI-H2170; first compound 0.005 µM", "result": 0.883}, {"measurement": "relative viability", "setting": "NCI-H2170; first compound 0.01581 µM", "result": 0.912}, {"measurement": "relative viability", "setting": "NCI-H2170; first compound 0.05 µM", "result": 0.845}, {"measurement": "relative viability", "setting": "NCI-H2170; first compound 0.1581 µM", "result": 0.798}, {"measurement": "relative viability", "setting": "NCI-H2170; first compound 0.5 µM", "result": 0.623}, {"measurement": "relative viability", "setting": "NCI-H2347; first compound 0.005 µM", "result": 0.809}, {"measurement": "relative viability", "setting": "NCI-H2347; first compound 0.01581 µM", "result": 0.594}, {"measurement": "relative viability", "setting": "NCI-H2347; first compound 0.05 µM", "result": 0.579}, {"measurement": "relative viability", "setting": "NCI-H2347; first compound 0.1581 µM", "result": 0.685}, {"measurement": "relative viability", "setting": "NCI-H2347; first compound 0.5 µM", "result": 0.579}, {"measurement": "relative viability", "setting": "NCI-H2405; first compound 0.005 µM", "result": 0.703}, {"measurement": "relative viability", "setting": "NCI-H2405; first compound 0.01581 µM", "result": 0.857}, {"measurement": "relative viability", "setting": "NCI-H2405; first compound 0.05 µM", "result": 0.622}, {"measurement": "relative viability", "setting": "NCI-H2405; first compound 0.1581 µM", "result": 0.698}, {"measurement": "relative viability", "setting": "NCI-H2405; first compound 0.5 µM", "result": 0.653}, {"measurement": "relative viability", "setting": "NCI-H3122; first compound 0.005 µM", "result": 0.982}, {"measurement": "relative viability", "setting": "NCI-H3122; first compound 0.01581 µM", "result": 0.971}, {"measurement": "relative viability", "setting": "NCI-H3122; first compound 0.05 µM", "result": 0.895}, {"measurement": "relative viability", "setting": "NCI-H3122; first compound 0.1581 µM", "result": 0.973}, {"measurement": "relative viability", "setting": "NCI-H3122; first compound 0.5 µM", "result": 0.985}, {"measurement": "relative viability", "setting": "NCI-H441; first compound 0.005 µM", "result": 1.12}, {"measurement": "relative viability", "setting": "NCI-H441; first compound 0.01581 µM", "result": 1.19}, {"measurement": "relative viability", "setting": "NCI-H441; first compound 0.05 µM", "result": 1.22}, {"measurement": "relative viability", "setting": "NCI-H441; first compound 0.1581 µM", "result": 1.04}, {"measurement": "relative viability", "setting": "NCI-H441; first compound 0.5 µM", "result": 1.24}, {"measurement": "relative viability", "setting": "NCI-H647; first compound 0.005 µM", "result": 0.413}, {"measurement": "relative viability", "setting": "NCI-H647; first compound 0.01581 µM", "result": 0.446}, {"measurement": "relative viability", "setting": "NCI-H647; first compound 0.05 µM", "result": 0.492}, {"measurement": "relative viability", "setting": "NCI-H647; first compound 0.1581 µM", "result": 0.343}, {"measurement": "relative viability", "setting": "NCI-H647; first compound 0.5 µM", "result": 0.438}, {"measurement": "relative viability", "setting": "PC-14; first compound 0.005 µM", "result": 0.326}, {"measurement": "relative viability", "setting": "PC-14; first compound 0.01581 µM", "result": 0.413}, {"measurement": "relative viability", "setting": "PC-14; first compound 0.05 µM", "result": 0.255}, {"measurement": "relative viability", "setting": "PC-14; first compound 0.1581 µM", "result": 0.322}, {"measurement": "relative viability", "setting": "PC-14; first compound 0.5 µM", "result": 0.325}, {"measurement": "relative viability", "setting": "RERF-LC-KJ; first compound 0.005 µM", "result": 1}, {"measurement": "relative viability", "setting": "RERF-LC-KJ; first compound 0.01581 µM", "result": 1.08}, {"measurement": "relative viability", "setting": "RERF-LC-KJ; first compound 0.05 µM", "result": 0.824}, {"measurement": "relative viability", "setting": "RERF-LC-KJ; first compound 0.1581 µM", "result": 1.12}, {"measurement": "relative viability", "setting": "RERF-LC-KJ; first compound 0.5 µM", "result": 0.921}, {"measurement": "relative viability", "setting": "SW 900; first compound 0.005 µM", "result": 0.538}, {"measurement": "relative viability", "setting": "SW 900; first compound 0.01581 µM", "result": 0.651}, {"measurement": "relative viability", "setting": "SW 900; first compound 0.1581 µM", "result": 0.573}, {"measurement": "relative viability", "setting": "SW 900; first compound 0.5 µM", "result": 0.476}]}
